What was measured:
CrHYC3R (THAS3) = biological target: T1, CrHYC3R (THAS3) (Catharanthus roseus, UniProt A0A1B1FHP1); assay: LC-MS/MS relative activity, yeast lysate; format: biochemical; details: 1 mM NADPH, 20 mM Tris-HCl pH 7.5, 30 °C, 4 h
T1 sequence (A0A1B1FHP1 1-377): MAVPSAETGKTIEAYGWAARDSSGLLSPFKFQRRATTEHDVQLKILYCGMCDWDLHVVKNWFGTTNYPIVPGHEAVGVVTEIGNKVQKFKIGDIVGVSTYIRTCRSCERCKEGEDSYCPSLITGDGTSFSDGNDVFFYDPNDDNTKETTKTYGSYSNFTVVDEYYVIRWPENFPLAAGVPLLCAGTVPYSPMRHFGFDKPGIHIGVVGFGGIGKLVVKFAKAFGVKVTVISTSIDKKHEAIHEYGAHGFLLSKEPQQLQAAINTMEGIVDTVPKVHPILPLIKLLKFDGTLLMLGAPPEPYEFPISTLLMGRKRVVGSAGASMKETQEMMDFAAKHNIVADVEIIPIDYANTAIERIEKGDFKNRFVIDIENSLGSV

RtHYC3O = assay: LC-MS/MS product assay, non-linear regression; format: biochemical, Rauvolfia tetraphylla; details: 20 mM Tris-HCl pH 7.5, 30 °C, 10 min; air O2; FAD enzyme

| Km (RtHYC3O) | Compound | LC-MS/MS relative activity, yeast lysate (CrHYC3R (THAS3)) |
| --- | --- | --- |
|  | COC(=O)[C@@H]1[C@H]2CC3=[N+](CCc4c3[nH]c3ccccc43)C[C@@H]2CC[C@@H]1O [3-dehydro-yohimbine] | efficiently reduced 3-dehydro intermediates of yohimbine and heteroyohimbine types |
| 1.15 µM | COC(=O)[C@H]1[C@H]2C[C@H]3c4[nH]c5ccccc5c4CCN3C[C@H]2CC[C@@H]1O [rauwolscine] |  |

— paper PMC12647599 (Nature Communications, 2025)
